Measured values as given in US11572590B2, “Methods for evaluating tumor cell spheroids using 3D microfluidic cell culture device” (Dana-Farber Cancer Institute, Inc., priority 2017, dated 2023).
Read-outs that look alike come from different tables or passages of the source.

Key:
Assay in all cases: SelectScreen Kinase Profiling, single point inhibition and IC50 for off-target kinases
Type in all cases: biochemical
off-target kinases [1] = molecular target: off-target kinases (Homo sapiens, UniProt Q9H1R3); conditions: MYLK2 (skMLCK), ATP Km app, ZLYTE
off-target kinases [2] = molecular target: off-target kinases (Homo sapiens, UniProt P53355); conditions: DAPK1, ATP Km app, Adapta
off-target kinases [3] = molecular target: off-target kinases (Homo sapiens, UniProt Q08345); conditions: DDR1, LanthaScreen Binding
off-target kinases [4] = molecular target: T1, off-target kinases (Homo sapiens, UniProt O94806); conditions: PRKCN (PKD3), ATP Km app, ZLYTE
T1 sequence (O94806 1-890): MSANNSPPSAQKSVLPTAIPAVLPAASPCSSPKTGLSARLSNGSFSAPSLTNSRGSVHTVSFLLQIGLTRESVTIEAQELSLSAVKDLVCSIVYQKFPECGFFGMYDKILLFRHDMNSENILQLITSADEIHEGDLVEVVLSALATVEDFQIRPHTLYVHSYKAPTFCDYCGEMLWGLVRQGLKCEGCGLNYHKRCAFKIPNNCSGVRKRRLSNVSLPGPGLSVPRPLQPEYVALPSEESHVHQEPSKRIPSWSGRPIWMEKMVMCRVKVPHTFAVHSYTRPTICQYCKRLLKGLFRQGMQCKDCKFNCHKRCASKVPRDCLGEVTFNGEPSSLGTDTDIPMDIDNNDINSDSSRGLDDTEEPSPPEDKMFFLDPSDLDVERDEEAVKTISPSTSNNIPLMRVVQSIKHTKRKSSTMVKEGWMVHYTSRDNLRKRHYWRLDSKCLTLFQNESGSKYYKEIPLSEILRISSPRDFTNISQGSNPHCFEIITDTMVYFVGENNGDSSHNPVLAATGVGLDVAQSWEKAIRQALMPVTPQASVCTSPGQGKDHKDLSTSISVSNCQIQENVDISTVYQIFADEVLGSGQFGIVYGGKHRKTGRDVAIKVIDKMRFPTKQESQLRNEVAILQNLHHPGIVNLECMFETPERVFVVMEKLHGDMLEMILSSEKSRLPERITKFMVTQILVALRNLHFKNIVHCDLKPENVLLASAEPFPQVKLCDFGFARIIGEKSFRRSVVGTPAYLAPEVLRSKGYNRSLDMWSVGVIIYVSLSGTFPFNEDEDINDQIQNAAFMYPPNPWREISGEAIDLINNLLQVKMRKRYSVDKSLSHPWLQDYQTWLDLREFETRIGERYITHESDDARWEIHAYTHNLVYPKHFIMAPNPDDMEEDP

off-target kinases [5] = molecular target: off-target kinases (Homo sapiens, UniProt P00519, Y253F); conditions: ABL1 Y253F, ATP Km app, ZLYTE
off-target kinases [6] = molecular target: off-target kinases (Homo sapiens, UniProt P17948); conditions: FLT1 (VEGFR1), ZLYTE, ATP Km app
off-target kinases [7] = molecular target: off-target kinases (Homo sapiens, UniProt P15056); conditions: BRAF; for inhibition: LanthaScreen Binding
off-target kinases (Homo sapiens, UniProt P15056), sequence (P15056 whole entry): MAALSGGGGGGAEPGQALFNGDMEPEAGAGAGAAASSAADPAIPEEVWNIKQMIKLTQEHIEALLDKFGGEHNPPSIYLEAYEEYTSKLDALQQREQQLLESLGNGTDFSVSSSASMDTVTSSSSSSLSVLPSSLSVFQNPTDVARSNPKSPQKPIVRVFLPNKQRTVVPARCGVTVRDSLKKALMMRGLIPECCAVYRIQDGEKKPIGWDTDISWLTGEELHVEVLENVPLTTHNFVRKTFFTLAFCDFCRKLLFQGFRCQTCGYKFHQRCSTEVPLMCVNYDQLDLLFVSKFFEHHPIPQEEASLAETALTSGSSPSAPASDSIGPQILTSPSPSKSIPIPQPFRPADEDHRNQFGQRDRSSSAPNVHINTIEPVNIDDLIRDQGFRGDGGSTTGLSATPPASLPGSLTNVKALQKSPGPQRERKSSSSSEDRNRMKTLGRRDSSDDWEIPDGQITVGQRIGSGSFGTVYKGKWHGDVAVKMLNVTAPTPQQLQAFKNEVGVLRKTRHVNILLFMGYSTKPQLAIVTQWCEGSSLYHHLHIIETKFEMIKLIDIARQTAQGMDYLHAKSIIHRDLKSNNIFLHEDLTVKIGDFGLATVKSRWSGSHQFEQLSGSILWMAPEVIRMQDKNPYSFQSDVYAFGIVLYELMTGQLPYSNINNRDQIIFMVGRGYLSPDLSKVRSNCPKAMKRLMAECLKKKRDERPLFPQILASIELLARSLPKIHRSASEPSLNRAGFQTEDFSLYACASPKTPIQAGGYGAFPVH

off-target kinases (Homo sapiens, UniProt P53355), sequence (P53355 whole entry): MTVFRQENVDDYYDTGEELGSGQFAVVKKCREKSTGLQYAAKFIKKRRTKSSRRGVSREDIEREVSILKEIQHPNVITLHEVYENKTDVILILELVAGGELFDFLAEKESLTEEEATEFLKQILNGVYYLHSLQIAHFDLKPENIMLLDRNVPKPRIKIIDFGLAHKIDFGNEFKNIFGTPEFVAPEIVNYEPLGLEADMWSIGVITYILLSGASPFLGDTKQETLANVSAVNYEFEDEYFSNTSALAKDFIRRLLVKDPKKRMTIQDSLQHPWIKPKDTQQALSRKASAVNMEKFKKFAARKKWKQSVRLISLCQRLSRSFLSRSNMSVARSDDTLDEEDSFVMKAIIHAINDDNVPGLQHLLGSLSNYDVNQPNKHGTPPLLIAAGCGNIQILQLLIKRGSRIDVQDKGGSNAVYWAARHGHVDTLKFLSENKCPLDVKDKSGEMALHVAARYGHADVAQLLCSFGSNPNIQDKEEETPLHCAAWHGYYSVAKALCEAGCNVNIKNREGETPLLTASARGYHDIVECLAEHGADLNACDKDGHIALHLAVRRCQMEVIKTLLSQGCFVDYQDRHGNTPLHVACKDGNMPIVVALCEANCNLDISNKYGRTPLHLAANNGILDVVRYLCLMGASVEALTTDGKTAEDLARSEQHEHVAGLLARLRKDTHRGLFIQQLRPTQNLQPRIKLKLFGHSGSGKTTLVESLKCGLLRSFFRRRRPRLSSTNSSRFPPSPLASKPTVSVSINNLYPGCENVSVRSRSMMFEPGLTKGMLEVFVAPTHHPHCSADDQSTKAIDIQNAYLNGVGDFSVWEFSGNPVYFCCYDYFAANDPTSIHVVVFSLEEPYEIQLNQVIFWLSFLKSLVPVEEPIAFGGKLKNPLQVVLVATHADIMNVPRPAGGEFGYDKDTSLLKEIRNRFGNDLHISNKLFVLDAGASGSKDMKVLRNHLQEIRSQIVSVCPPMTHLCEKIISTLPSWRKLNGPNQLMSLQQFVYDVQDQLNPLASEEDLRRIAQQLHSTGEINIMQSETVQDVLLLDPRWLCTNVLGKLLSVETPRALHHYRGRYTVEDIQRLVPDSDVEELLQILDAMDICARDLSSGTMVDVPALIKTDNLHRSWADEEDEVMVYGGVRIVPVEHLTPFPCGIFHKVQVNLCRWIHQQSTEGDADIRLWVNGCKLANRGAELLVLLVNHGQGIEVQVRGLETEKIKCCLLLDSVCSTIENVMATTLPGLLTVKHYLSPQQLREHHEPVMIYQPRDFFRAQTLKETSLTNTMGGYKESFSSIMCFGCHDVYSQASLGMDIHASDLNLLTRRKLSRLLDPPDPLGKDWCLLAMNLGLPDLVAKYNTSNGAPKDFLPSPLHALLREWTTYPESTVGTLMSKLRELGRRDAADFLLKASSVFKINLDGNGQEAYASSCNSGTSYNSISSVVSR
off-target kinases (Homo sapiens, UniProt P17948), sequence (P17948 27-1338): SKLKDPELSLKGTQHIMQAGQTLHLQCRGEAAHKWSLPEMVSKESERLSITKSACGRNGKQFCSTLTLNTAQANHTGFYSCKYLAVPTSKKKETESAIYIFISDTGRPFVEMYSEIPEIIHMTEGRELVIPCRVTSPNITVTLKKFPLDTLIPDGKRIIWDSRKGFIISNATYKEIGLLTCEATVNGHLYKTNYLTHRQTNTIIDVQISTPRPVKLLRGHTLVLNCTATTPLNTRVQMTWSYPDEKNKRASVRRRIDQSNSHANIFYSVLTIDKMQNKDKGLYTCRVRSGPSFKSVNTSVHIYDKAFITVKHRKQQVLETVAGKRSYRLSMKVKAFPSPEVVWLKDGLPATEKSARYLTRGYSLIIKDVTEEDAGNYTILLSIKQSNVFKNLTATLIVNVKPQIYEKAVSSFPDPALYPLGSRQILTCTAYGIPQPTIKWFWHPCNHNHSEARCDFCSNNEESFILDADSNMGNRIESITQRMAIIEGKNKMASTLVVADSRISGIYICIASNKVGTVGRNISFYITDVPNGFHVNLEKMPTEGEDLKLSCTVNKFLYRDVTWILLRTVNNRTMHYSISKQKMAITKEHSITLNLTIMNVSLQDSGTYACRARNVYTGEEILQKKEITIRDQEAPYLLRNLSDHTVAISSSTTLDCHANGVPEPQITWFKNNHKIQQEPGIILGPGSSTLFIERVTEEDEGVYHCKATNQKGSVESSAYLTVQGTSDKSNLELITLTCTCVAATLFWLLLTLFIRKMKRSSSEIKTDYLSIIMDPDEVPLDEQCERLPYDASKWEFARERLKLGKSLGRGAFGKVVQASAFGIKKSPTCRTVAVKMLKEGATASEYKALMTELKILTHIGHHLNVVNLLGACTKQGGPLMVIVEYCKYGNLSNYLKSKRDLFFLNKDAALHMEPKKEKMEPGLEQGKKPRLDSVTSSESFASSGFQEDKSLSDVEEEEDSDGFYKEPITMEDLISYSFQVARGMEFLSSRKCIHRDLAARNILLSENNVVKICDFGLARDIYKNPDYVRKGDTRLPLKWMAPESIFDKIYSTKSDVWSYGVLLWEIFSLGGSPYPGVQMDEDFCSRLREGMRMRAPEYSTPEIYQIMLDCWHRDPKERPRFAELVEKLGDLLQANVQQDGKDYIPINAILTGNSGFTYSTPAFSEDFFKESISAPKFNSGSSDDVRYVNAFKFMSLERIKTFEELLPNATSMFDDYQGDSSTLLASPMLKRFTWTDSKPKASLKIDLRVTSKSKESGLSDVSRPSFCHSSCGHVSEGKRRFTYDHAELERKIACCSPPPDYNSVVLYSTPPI
off-target kinases (Homo sapiens, UniProt Q08345), sequence (Q08345 19-913): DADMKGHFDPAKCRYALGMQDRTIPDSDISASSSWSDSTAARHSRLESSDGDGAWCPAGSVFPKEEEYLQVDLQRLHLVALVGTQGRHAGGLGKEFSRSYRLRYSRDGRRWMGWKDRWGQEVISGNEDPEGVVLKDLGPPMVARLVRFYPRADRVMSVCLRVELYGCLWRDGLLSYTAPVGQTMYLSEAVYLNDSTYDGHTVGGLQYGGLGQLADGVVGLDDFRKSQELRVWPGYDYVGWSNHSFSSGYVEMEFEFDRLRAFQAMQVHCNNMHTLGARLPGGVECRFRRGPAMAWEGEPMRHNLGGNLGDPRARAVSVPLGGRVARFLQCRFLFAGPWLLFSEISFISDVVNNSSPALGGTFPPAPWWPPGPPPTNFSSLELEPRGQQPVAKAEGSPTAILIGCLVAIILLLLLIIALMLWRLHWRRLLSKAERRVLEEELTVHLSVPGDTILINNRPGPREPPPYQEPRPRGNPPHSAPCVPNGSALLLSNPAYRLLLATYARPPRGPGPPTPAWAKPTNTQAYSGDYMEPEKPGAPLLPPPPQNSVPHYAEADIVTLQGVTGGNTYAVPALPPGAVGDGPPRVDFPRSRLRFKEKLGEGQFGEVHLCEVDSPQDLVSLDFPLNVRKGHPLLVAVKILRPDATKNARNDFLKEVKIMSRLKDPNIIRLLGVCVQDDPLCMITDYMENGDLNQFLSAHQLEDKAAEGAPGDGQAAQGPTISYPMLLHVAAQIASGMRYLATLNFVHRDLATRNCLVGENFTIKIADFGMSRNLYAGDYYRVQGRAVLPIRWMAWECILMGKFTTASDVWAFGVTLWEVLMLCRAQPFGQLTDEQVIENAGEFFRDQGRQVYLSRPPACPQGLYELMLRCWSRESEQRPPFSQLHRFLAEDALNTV
off-target kinases (Homo sapiens, UniProt Q9H1R3), sequence (Q9H1R3 whole entry): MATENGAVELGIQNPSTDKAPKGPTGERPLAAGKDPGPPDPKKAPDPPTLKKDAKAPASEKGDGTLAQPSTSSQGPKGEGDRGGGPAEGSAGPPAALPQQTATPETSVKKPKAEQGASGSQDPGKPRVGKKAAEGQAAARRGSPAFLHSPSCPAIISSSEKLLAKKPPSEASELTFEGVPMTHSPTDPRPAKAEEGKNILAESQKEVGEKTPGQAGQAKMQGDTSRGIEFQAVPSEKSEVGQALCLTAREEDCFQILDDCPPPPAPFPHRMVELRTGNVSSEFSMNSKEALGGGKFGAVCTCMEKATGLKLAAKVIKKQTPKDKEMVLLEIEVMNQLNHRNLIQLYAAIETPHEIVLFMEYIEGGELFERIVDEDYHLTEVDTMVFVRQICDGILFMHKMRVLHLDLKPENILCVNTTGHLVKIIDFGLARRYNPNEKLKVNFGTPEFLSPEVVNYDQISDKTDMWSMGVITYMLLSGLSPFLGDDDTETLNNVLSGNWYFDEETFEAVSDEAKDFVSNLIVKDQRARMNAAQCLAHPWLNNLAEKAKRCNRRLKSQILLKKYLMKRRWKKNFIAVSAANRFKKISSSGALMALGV

Question: `N#Cc1cc(-c2ncnc(Nc3ccc(N4CCN(C5COC5)CC4)cc3)n2)ccc1OC1CCOCC1` [Compound 1, 5-(4-((4-(4-(oxetan-3-yl)piperazin-1-yl)phenyl)amino)-1,3,5-triazin-2-yl)-2-((tetrahydro-2H-pyran-4-yl)oxy)benzonitrile] was tested. Which inhibition (off-target kinases [1]; read-out: % Inhibition 1) did it give?
Answer: 65%

Question: And the inhibition (off-target kinases [1]; read-out: % Inhibition 2)?
Answer: 60%

Question: And the inhibition (off-target kinases [1]; read-out: % Inhibition Avg)?
Answer: 63%

Question: And the inhibition (off-target kinases [2]; read-out: % Inhibition 1)?
Answer: 42%

Question: What about the inhibition (off-target kinases [2]; read-out: % Inhibition 2) of the same molecule?
Answer: 43%

Question: What about the inhibition (off-target kinases [2]; read-out: % Inhibition Avg) of the same molecule?
Answer: 43%

Question: What about the inhibition (off-target kinases [3]; read-out: % Inhibition 1) of the same molecule?
Answer: 3%

Question: What about the inhibition (off-target kinases [3]; read-out: % Inhibition 2) of the same molecule?
Answer: 2%

Question: What about the inhibition (off-target kinases [3]; read-out: % Inhibition Avg) of the same molecule?
Answer: 2%

Question: And the inhibition (off-target kinases [4]; read-out: % Inhibition 1)?
Answer: 98%

Question: What about the inhibition (off-target kinases [4]; read-out: % Inhibition 2) of the same molecule?
Answer: 96%

Question: And the inhibition (off-target kinases [4]; read-out: % Inhibition Avg)?
Answer: 97%

Question: And the inhibition (off-target kinases [5]; read-out: % Inhibition 1)?
Answer: 61%

Question: What about the inhibition (off-target kinases [5]; read-out: % Inhibition 2) of the same molecule?
Answer: 48%

Question: What about the inhibition (off-target kinases [5]; read-out: % Inhibition Avg) of the same molecule?
Answer: 54%

Question: What about the inhibition (off-target kinases [6]; read-out: % Inhibition 1) of the same molecule?
Answer: 7%

Question: And the inhibition (off-target kinases [6]; read-out: % Inhibition 2)?
Answer: 4%

Question: And the inhibition (off-target kinases [6]; read-out: % Inhibition Avg)?
Answer: 6%

Question: What about the “% Inhibition 1” value (off-target kinases [7]; Cmpd1 1000 μM, ATP 100, ZLYTE) of the same molecule?
Answer: −18%

Question: And the “% Inhibition 2” value (off-target kinases [7]; Cmpd1 1000 μM, ATP 100, ZLYTE)?
Answer: −10%

Question: And the “% Inhibition Avg” value (off-target kinases [7]; Cmpd1 1000 μM, ATP 100, ZLYTE)?
Answer: −14%

Question: What about the inhibition (off-target kinases [7]; read-out: % Inhibition 1) of the same molecule?
Answer: 44%

Question: What about the inhibition (off-target kinases [7]; read-out: % Inhibition 2) of the same molecule?
Answer: 47%

Question: What about the inhibition (off-target kinases [7]; read-out: % Inhibition Avg) of the same molecule?
Answer: 46%
